Assay results: the supplement of paper PMC10307832

Key:
Test in all cases: relative viability (nuclei count vs DMSO), 5 days (fraction); higher = more cells survive
[1] = system: NCI-H1734
Method in brief: (§1)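 Each reported value is a median over duplicate plates. It expresses relative viability: treated-well nuclei count divided by vehicle-well nuclei count. Lung cancer cell lines in 1536-well plates were dosed by pin tool a day after seeding, alone with one drug or with a fixed anchor-drug dose plus five library-drug doses (not always all listed) in √10 steps, and nuclei were counted after 5 days.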

[2] = system: HARA
Method in brief: as §1

[3] = system: NCI-H1993
Method in brief: as §1

[4] = system: NCI-H647
Method in brief: as §1

[5] = system: UMC-11
Method in brief: as §1

[6] = system: NCI-H1395
Method in brief: as §1

[7] = system: NCI-H2228
Method in brief: as §1

[8] = system: COR-L 105
Method in brief: as §1

[9] = system: NCI-H2347
Method in brief: as §1

[10] = system: HCC-15
Method in brief: as §1

[11] = system: NCI-H1355
Method in brief: as §1

[12] = system: NCI-H1792
Method in brief: as §1

[13] = system: NCI-H838
Method in brief: as §1

[14] = system: SK-MES-1
Method in brief: as §1

[15] = system: NCI-H358
Method in brief: as §1

[16] = system: NCI-H1793
Method in brief: as §1

[17] = system: NCI-H1755
Method in brief: as §1

[18] = system: NCI-H2009
Method in brief: as §1

[19] = system: HOP-62
Method in brief: as §1

[20] = system: COR-L23
Method in brief: as §1

## COc1cc2nccc(Oc3ccc(NC(=O)Nc4cc(C)on4)c(Cl)c3)c2cc1OC [Tivozanib] + C[C@]1(O)C[C@@H](c2nc(-c3ccc4ccc(-c5ccccc5)nc4c3)c3c(N)nccn32)C1 [Linsitinib] (partner 1 µM)
[1]; first compound 0.005 µM
  relative viability: 0.847
[1]; first compound 0.01581 µM
  relative viability: 0.795
[1]; first compound 0.05 µM
  relative viability: 1.03
[1]; first compound 0.1581 µM
  relative viability: 0.674
[1]; first compound 0.5 µM
  relative viability: 0.858
[2]; first compound 0.005 µM
  relative viability: 0.915
[2]; first compound 0.01581 µM
  relative viability: 0.838
[2]; first compound 0.05 µM
  relative viability: 1.11
[2]; first compound 0.1581 µM
  relative viability: 1.01
[2]; first compound 0.5 µM
  relative viability: 0.99
[3]; first compound 0.005 µM
  relative viability: 0.698
[3]; first compound 0.01581 µM
  relative viability: 0.777
[3]; first compound 0.05 µM
  relative viability: 0.79
[3]; first compound 0.1581 µM
  relative viability: 0.638
[3]; first compound 0.5 µM
  relative viability: 0.758
[4]; first compound 0.005 µM
  relative viability: 1.08
[4]; first compound 0.01581 µM
  relative viability: 1.09
[4]; first compound 0.05 µM
  relative viability: 1.26
[4]; first compound 0.1581 µM
  relative viability: 1.21
[4]; first compound 0.5 µM
  relative viability: 1.18
[5]; first compound 0.005 µM
  relative viability: 1.08
[5]; first compound 0.01581 µM
  relative viability: 1.01
[5]; first compound 0.05 µM
  relative viability: 1.06
[5]; first compound 0.5 µM
  relative viability: 0.997
[6]; first compound 0.005 µM
  relative viability: 0.99
[6]; first compound 0.01581 µM
  relative viability: 1.1
[6]; first compound 0.05 µM
  relative viability: 1.26
[6]; first compound 0.1581 µM
  relative viability: 1.09
[6]; first compound 0.5 µM
  relative viability: 0.827
[7]; first compound 0.005 µM
  relative viability: 0.504
[7]; first compound 0.01581 µM
  relative viability: 0.683
[7]; first compound 0.05 µM
  relative viability: 0.697
[7]; first compound 0.1581 µM
  relative viability: 0.569
[7]; first compound 0.5 µM
  relative viability: 0.868
[8]; first compound 0.01581 µM
  relative viability: 1.25
[8]; first compound 0.05 µM
  relative viability: 1.02
[8]; first compound 0.1581 µM
  relative viability: 1.02
[8]; first compound 0.5 µM
  relative viability: 0.904
[9]; first compound 0.005 µM
  relative viability: 0.711
[9]; first compound 0.01581 µM
  relative viability: 0.897
[9]; first compound 0.05 µM
  relative viability: 0.966
[9]; first compound 0.1581 µM
  relative viability: 1.1
[9]; first compound 0.5 µM
  relative viability: 0.92
[10]; first compound 0.005 µM
  relative viability: 0.9
[10]; first compound 0.01581 µM
  relative viability: 0.878
[10]; first compound 0.05 µM
  relative viability: 0.9
[10]; first compound 0.1581 µM
  relative viability: 0.875
[10]; first compound 0.5 µM
  relative viability: 0.897
[11]; first compound 0.005 µM
  relative viability: 0.776
[11]; first compound 0.01581 µM
  relative viability: 0.809
[11]; first compound 0.05 µM
  relative viability: 0.895
[11]; first compound 0.5 µM
  relative viability: 0.844
[12]; first compound 0.005 µM
  relative viability: 0.535
[12]; first compound 0.01581 µM
  relative viability: 0.581
[12]; first compound 0.05 µM
  relative viability: 0.534
[12]; first compound 0.1581 µM
  relative viability: 0.698
[12]; first compound 0.5 µM
  relative viability: 0.592
[13]; first compound 0.005 µM
  relative viability: 0.963
[13]; first compound 0.01581 µM
  relative viability: 1.04
[13]; first compound 0.05 µM
  relative viability: 1.11
[13]; first compound 0.5 µM
  relative viability: 0.942
[14]; first compound 0.005 µM
  relative viability: 1.08
[14]; first compound 0.01581 µM
  relative viability: 1.07
[14]; first compound 0.05 µM
  relative viability: 1.05
[14]; first compound 0.1581 µM
  relative viability: 1.14
[14]; first compound 0.5 µM
  relative viability: 1.07
[15]; first compound 0.005 µM
  relative viability: 0.765
[15]; first compound 0.01581 µM
  relative viability: 0.849
[15]; first compound 0.05 µM
  relative viability: 0.718
[15]; first compound 0.1581 µM
  relative viability: 0.695
[15]; first compound 0.5 µM
  relative viability: 0.782
[16]; first compound 0.005 µM
  relative viability: 0.778
[16]; first compound 0.01581 µM
  relative viability: 0.954
[16]; first compound 0.05 µM
  relative viability: 0.774
[16]; first compound 0.5 µM
  relative viability: 1.19
[17]; first compound 0.005 µM
  relative viability: 0.968
[17]; first compound 0.01581 µM
  relative viability: 0.918
[17]; first compound 0.05 µM
  relative viability: 1.05
[17]; first compound 0.1581 µM
  relative viability: 1.02
[17]; first compound 0.5 µM
  relative viability: 0.96
[18]; first compound 0.005 µM
  relative viability: 1.15
[18]; first compound 0.01581 µM
  relative viability: 1.19
[18]; first compound 0.05 µM
  relative viability: 1.23
[18]; first compound 0.1581 µM
  relative viability: 1.25
[18]; first compound 0.5 µM
  relative viability: 1.23
[19]; first compound 0.005 µM
  relative viability: 0.87
[19]; first compound 0.01581 µM
  relative viability: 0.929
[19]; first compound 0.05 µM
  relative viability: 1.16
[19]; first compound 0.1581 µM
  relative viability: 0.932
[19]; first compound 0.5 µM
  relative viability: 0.988
[20]; first compound 0.005 µM
  relative viability: 0.848
[20]; first compound 0.01581 µM
  relative viability: 0.886
[20]; first compound 0.05 µM
  relative viability: 0.994
[20]; first compound 0.1581 µM
  relative viability: 0.887
[20]; first compound 0.5 µM
  relative viability: 0.819
